Laboratory results: patent publication US20020013373A1, “Methods and compositions for treatment of asthma” (priority 1997, published 2002)
Read-outs that look alike come from different tables or passages of the source.

Experiments:
allergic sheep [1] = assay: Antigen-induced airway hyperresponsiveness (AHR), PD400 of carbachol, acute responder sheep; format: in vivo; details: acute responders; for inhibition of AHR (PD400): 2 hours after antigen, FIG. 7
Procedure: (§1) To assess the normal or baseline airway responsiveness of the sheep, cumulative dose response curves to inhaled carbochol were performed. The SRL of each sheep was measured before and after inhalation of a buffered saline solution and after each administration of 10 breaths of increasing concentrations of carbachol (0.25, 0.5, 1.0, 2.0 and 4.0% wt/vol solution). Airway responsiveness was defined by determination of the cumulative provocation dose (PD400) of carbachol (in breath units) that increased SRL to 400% above baseline. One breath unit was defined as one breath of 1% carbachol solution.
(§2) The following experiments used inhaled D- or L-propranolol. AHR was estimated at 2 hours (acute) or 24 hours (dual) after antigen challenge as the provocating dose of carbachol which increased SRL by 400% (PD400). In acute responders, SRL increased by 219% with antigen challenge and PD400 decreased by 55%. Inhaled D-propranolol had no effect on baseline SRL, but inhibited ABR in a dose dependent manner.

allergic sheep [2] = assay: Antigen-induced bronchoconstriction (early and late phase SRL), dual responder sheep; format: in vivo; details: dual responders
Source text: Data was expressed as specific resistance, SRL.

allergic sheep [3] = assay: Antigen-induced airway hyperresponsiveness (AHR), PD400 of carbachol, dual responder sheep; format: in vivo; details: dual responders
Procedure: as §1, §2

allergic sheep [4] = details: for inhibition of ABR: FIG. 6
Procedure: Five allergic sheep, with previously documented acute bronchoconstrictor response to Ascaris suum antigen, were used for all studies. The sheep were intubated with a cuffed nasotracheal tube and pulmonary airflow resistance (RL) was measured by the esophageal balloon catheter technique, while thoracic gas volume was measured by body plethysmography. Data was expressed as specific resistance, SRL. SRL is defined as RL times thoracic gas volume (Vtg).
The normal reaction of the sheep to the antigen from Ascaris suum is measured. After full recovery and a two week rest period, the sheep again undergo repeat antigen challenge, but this time only after treatment with D-propranolol.
The SRL of the acute responder sheep was measured prior to any treatment (baseline). The normal response of the sheep to antigen challenge by Ascaris suum antigen was measured (Open circles). […] One hour after D-propranolol was administered, the sheep were challenged with Ascaris suum antigen by inhalation. The SRL was measured immediately after antigen challenge (AG0).
Specific lung resistance (SRL) was measured in 11 allergic sheep, of which six sheep were acute responders and five sheep were dual responders, before and serially after challenge with Ascaris suum antigen, without and after pretreatment with D- or L-propranolol. The propranolol was administered either in an inhaled dose or an oral dose.

[5] = inhaled, FIG. 18 (legend: 10 mg/kg)

CC(C)NC[C@@H](O)COc1cccc2ccccc12 [D-propranolol]
airway responsiveness (PD400) after antigen (allergic sheep [1]; Example I, inhaled 10 mg in 4 mL PBS, P=NS, FIG. 4): maintained the airway responsiveness levels at the baseline | inhibition of AHR (PD400) (allergic sheep [1]; inhaled, 5 mg dose): 30% | inhibition of AHR (PD400) (allergic sheep [1]; inhaled, 10 mg dose): 50% | inhibition of AHR (PD400) (allergic sheep [1]; inhaled, 20 mg dose, P<0.05 vs post-antigen): 75% | effect on AHR (change in PD400) (allergic sheep [1]; oral, 5 mg/kg, FIG. 11): effects | attenuation of early phase (allergic sheep [2]; inhaled, 5 mg dose, FIG. 12): 35% | attenuation of late phase (allergic sheep [2]; inhaled, 5 mg dose, FIG. 12): 21% | effect on ABR (allergic sheep [2]; inhaled, 10 mg dose, FIG. 14): effected ABR | effect on early phase (allergic sheep [2]; oral, 5 mg/kg, FIG. 16): significantly effected the early phase | effect on late phase response (allergic sheep [2]; oral, 5 mg/kg, FIG. 16): may even remove the late phase response | inhibition of AHR (PD400) (allergic sheep [3]; inhaled, 5 mg dose, 24 hours after antigen, P<0.05, FIG. 13): 44% | effect on AHR (allergic sheep [3]; inhaled, 10 mg dose, FIG. 15): effected | effect on AHR (allergic sheep [3]; oral, 5 mg/kg, FIG. 17): effected AHR | allergic bronchoconstriction after antigen challenge (allergic sheep [4]; Example I, acute responders (n=5), aerosol 10 mg in 4 mL PBS one hour before antigen, FIG. 1): significant inhibition of allergic bronchoconstriction | percentage change in SRL after antigen stimulation vs control (allergic sheep [4]; Example I, acute responders (n=5), aerosol 10 mg in 4 mL PBS, P<0.05, FIG. 2): significantly less change in SRL | inhibition of ABR (allergic sheep [4]; acute responders, inhaled, 5 mg dose): 37% | inhibition of ABR (allergic sheep [4]; acute responders, inhaled, 10 mg dose, P<0.05): 68% | inhibition of ABR (allergic sheep [4]; acute responders, inhaled, 20 mg dose): 44% | effect on ABR (change in SRL) (allergic sheep [4]; acute responders, oral, 5 mg/kg, FIG. 10): effects ABR | effect on baseline SRL (allergic sheep [4]; in vivo): had no effect

CC(C)NC[C@H](O)COc1cccc2ccccc12 [L-propranolol, reference compound]
AHR response (PD400) (allergic sheep [1]; inhaled, 10 mg dose, FIG. 9): no difference between the post antigen and L-propranolol responses | effect on antigen-induced responses (allergic sheep [2]; [5]): ineffective | peak early change in SRL (allergic sheep [2]; [5]): 351% | peak late SRL (allergic sheep [2]; [5]): 175% | effect on PD400 (allergic sheep [3]; inhaled, 24 hours after antigen, FIG. 19 (legend: 10 mg/kg)): had no effect | change in SRL after antigen challenge (allergic sheep [4]; acute responders, inhaled, 10 mg dose, FIG. 8): 209%
